{
  "source": "patent US20250136578A1",
  "about": "(Kolm Therapeutics Inc., priority 2023, published 2025)",
  "key": {"[1]": {"molecular_target": "AR / CBP ternary complex (Homo sapiens, UniProt P10275+Q92793)", "sequence (P10275 whole entry)": "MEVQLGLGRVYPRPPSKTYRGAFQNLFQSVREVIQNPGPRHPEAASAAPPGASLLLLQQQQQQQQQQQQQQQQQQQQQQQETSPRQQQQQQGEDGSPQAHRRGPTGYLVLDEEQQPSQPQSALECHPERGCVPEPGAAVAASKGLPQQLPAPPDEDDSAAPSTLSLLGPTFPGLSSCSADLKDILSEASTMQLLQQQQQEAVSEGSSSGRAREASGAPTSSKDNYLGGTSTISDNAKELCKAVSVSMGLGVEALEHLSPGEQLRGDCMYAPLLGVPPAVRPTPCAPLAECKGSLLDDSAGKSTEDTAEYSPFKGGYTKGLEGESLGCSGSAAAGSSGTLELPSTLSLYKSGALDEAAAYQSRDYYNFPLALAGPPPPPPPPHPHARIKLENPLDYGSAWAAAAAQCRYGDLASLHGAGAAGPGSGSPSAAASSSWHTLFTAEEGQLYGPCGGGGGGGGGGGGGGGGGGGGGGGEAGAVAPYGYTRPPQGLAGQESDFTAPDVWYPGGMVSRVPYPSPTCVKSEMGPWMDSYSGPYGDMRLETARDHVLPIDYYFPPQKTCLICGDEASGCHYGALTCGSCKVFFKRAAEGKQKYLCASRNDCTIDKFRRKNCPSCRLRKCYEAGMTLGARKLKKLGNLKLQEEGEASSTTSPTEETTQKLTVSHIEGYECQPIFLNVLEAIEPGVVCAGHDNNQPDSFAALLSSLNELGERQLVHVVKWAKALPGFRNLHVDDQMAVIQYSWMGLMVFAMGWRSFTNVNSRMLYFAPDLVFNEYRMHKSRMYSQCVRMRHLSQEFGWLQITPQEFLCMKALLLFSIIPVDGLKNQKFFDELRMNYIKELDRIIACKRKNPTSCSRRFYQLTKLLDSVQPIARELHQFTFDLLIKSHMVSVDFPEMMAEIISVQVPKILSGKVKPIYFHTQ", "sequence (Q92793 2-2442)": "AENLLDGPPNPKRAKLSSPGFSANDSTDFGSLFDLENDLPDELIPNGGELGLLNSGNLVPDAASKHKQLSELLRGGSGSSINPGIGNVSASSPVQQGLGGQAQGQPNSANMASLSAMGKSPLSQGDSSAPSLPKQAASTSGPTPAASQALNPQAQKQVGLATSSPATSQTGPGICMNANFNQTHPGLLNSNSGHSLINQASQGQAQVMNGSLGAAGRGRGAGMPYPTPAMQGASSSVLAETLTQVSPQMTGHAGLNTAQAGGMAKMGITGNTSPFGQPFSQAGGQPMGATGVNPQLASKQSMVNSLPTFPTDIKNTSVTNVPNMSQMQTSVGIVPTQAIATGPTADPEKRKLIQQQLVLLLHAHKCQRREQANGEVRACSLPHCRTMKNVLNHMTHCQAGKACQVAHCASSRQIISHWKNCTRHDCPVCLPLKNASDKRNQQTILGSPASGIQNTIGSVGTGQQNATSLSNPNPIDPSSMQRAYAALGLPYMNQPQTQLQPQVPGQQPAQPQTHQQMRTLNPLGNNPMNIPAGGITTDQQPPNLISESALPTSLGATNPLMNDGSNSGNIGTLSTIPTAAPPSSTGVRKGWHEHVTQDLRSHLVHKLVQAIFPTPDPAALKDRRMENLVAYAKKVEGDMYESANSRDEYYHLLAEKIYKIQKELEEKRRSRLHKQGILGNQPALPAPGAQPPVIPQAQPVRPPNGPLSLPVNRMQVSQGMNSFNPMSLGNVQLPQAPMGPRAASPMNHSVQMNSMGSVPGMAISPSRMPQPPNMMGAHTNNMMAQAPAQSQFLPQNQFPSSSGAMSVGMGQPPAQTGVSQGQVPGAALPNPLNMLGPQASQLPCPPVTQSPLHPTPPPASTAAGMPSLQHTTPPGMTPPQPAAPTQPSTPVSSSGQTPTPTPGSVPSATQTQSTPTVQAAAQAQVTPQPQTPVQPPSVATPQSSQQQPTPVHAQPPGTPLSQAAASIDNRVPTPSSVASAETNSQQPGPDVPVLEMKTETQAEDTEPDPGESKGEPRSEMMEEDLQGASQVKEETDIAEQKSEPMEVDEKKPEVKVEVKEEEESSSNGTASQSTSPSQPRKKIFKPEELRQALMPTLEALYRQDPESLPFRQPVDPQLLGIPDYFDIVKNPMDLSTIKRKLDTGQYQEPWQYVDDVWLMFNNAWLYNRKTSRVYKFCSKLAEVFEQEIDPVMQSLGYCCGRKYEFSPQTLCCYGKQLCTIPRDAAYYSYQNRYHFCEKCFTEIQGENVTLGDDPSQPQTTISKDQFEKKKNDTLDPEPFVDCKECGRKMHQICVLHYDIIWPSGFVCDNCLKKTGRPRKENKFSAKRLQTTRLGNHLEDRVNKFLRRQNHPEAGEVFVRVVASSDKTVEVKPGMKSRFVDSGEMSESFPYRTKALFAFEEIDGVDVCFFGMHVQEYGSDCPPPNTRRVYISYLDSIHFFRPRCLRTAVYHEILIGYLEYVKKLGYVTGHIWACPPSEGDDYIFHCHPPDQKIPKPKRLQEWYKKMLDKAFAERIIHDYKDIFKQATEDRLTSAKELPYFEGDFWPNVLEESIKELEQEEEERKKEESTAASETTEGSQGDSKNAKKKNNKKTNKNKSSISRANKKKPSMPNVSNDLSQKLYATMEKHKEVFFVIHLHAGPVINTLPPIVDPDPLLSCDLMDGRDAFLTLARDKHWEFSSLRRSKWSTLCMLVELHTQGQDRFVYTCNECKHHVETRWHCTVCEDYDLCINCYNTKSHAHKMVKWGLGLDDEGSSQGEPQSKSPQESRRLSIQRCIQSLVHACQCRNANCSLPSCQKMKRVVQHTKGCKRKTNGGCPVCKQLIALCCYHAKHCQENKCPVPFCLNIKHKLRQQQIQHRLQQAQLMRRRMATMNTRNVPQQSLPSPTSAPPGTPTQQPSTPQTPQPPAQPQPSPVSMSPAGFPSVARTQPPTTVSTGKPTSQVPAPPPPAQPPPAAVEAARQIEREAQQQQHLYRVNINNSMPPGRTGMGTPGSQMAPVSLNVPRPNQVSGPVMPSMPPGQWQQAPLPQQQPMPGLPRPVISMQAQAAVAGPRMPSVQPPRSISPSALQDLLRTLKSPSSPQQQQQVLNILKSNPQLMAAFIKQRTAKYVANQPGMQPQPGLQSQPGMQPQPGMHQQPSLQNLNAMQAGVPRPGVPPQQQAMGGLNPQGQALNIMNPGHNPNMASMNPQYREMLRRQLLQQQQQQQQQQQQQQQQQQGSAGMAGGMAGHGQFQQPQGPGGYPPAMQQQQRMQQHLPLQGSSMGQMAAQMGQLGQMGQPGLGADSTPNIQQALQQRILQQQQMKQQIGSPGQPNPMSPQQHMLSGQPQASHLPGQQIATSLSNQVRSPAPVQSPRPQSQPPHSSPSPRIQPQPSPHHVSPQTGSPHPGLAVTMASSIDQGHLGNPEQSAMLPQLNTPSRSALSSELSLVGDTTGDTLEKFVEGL", "test": "Ternary complex formation assay (sandwich ELISA, AR capture, CBP antibody detection) in VCaP cell lysates", "assay_type": "cell-based", "conditions": "treated 1.5 hours, rabbit CBP or p300 antibody detection, average, read-out: Average Ternary Complex", "procedure,_shortened": "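Sandwich ELISA: plates were coated with anti-AR antibody (AR441) and given lysates of VCaP cells treated 1.5 h with bifunctional compound in charcoal-stripped serum. Co-captured CBP or p300 was probed with rabbit mAbs and HRP secondary. Chemifluorescent signal (ex 570/em 585) was read at 0, 5 and 15 min.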"}, "[2]": {"system": "VCaP cells", "test": "VCaP growth inhibition assay (CTG)", "assay_type": "cell-based", "conditions": "Homo sapiens, 216 h, 30 pM R1881, 9 days", "procedure,_shortened": "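Growth was measured by CTG luminescence after a 9-day exposure of VCaP cells to compound (final 10 fM–100 nM, fivefold steps) in the presence of 30 pM final R1881, in phenol red-free DMEM/5% CSS. IC50 values were derived by nonlinear 4-parameter regression of RLU against concentration.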"}},
  "data": [
    {"smiles": "CC(=O)N1CCc2c(c(N3CCCc4cc(-c5cnn(C)c5)c(C(F)F)cc43)nn2C2CCN(C3CC4(C3)CN(c3ccc(C(=O)N[C@H]5CC[C@H](Oc6ccc(C#N)c(Cl)c6)CC5)nn3)C4)CC2)C1", "note": "[Compound 229, 6-[6-[4-[5-acetyl-3-[7-(difluoromethyl)-6-(1-methylpyrazol-4-yl)-3,4-dihydro-2H-quinolin-1-yl]-6,7-dihydro-4H-pyrazolo[4,3-c]pyridin-1-yl]-1-piperidyl]-2-azaspiro[3.3]heptan-2-yl]-N-[4-(3-chloro-4-cyano-phenoxy)cyclohexyl]pyridazine-3-carboxamide]", "values": [
      {"measurement": "EC50", "setting": "[1]", "value": "< 1", "unit": "nM"},
      {"measurement": "IC50", "setting": "[2]", "value": "≤ 0.1", "unit": "nM"}
    ]},
    {"smiles": "CC(=O)N1CCc2c(c(N3CCCc4cc(-c5cnn(C)c5)c(C(F)F)cc43)nn2[C@@H]2CCN(CC3CCN(c4ccc(C(=O)N[C@H]5CC[C@H](Oc6ccc(C#N)c(Cl)c6)CC5)nn4)CC3)C[C@@H]2F)C1", "note": "[Compound 144, 6-[4-[[(3S,4R)-4-[5-acetyl-3-[7-(difluoromethyl)-6-(1-methylpyrazol-4-yl)-3,4-dihydro-2H-quinolin-1-yl]-6,7-dihydro-4H-pyrazolo[4,3-c]pyridin-1-yl]-3-fluoro-1-piperidyl]methyl]-1-piperidyl]-N-[4-(3-chloro-4-cyano-phenoxy)cyclohexyl] pyridazine-3-carboxamide]", "values": [
      {"measurement": "EC50", "setting": "[1]", "value": "< 1", "unit": "nM"},
      {"measurement": "IC50", "setting": "[2]", "value": "≤ 0.1", "unit": "nM"}
    ]},
    {"smiles": "CC(=O)N1CCc2c(c(N3CCCc4ccc(C(F)F)cc43)nn2C2CC3(C2)CN(C(=O)C2CC4(C2)CN(c2ccc(C(=O)N[C@H]5CC[C@H](Oc6ccc(C#N)c(Cl)c6)CC5)nn2)C4)C3)C1", "note": "(stereo partly drawn) [Compound 42, 6-[6-[6-[5-acetyl-3-[7-(difluoromethyl)-3,4-dihydro-2H-quinolin-1-yl]-6,7-dihydro-4H-pyrazolo[4,3-c]pyridin-1-yl]-2-azaspiro[3.3]heptane-2-carbonyl]-2-azaspiro[3.3]heptan-2-yl]-N-[4-(3-chloro-4-cyano-phenoxy)cyclohexyl]pyridazine-3-carboxamide]", "values": [
      {"measurement": "EC50", "setting": "[1]", "value": "1 to 10", "unit": "nM"},
      {"measurement": "IC50", "setting": "[2]", "value": "0.1 to 1", "unit": "nM"}
    ]},
    {"smiles": "CC(=O)N1CCc2c(c(N3CCCc4cc(C#N)c(C(F)F)cc43)nn2C2CCN(CC3CCN(c4ccc(C(=O)N[C@H]5CC[C@H](Oc6ccc(C#N)c(Cl)c6)CC5)nn4)CC3(C)C)CC2)C1", "note": "(stereo partly drawn) [Compound 283, 6-[4-[[4-[5-acetyl-3-[6-cyano-7-(difluoromethyl)-3,4-dihydro-2H-quinolin-1-yl]-6,7-dihydro-4H-pyrazolo[4,3-c]pyridin-1-yl]-1-piperidyl]methyl]-3,3-dimethyl-1-piperidyl]-N-[4-(3-chloro-4-cyano-phenoxy)cyclohexyl]pyridazine-3-carboxamide]", "values": [
      {"measurement": "EC50", "setting": "[1]", "value": "< 1", "unit": "nM"},
      {"measurement": "IC50", "setting": "[2]", "value": "≤ 0.1", "unit": "nM"}
    ]},
    {"smiles": "CC(=O)N1CCc2c(c(N3CCCc4cc(C5CC5)ncc43)nn2C2CCN(CC3CCN(c4ccc(C(=O)N[C@H]5CC[C@H](Oc6ccc(C#N)c(Cl)c6)CC5)nn4)CC3)CC2)C1", "note": "[Compound 108, 6-[4-[[4-[5-acetyl-3-(6-cyclopropyl-3,4-dihydro-2H-1,7-naphthyridin-1-yl)-6,7-dihydro-4H-pyrazolo[4,3-c]pyridin-1-yl]-1-piperidyl]methyl]-1-piperidyl]-N-[4-(3-chloro-4-cyano-phenoxy)cyclohexyl]pyridazine-3-carboxamide]", "values": [
      {"measurement": "EC50", "setting": "[1]", "value": "1 to 10", "unit": "nM"},
      {"measurement": "IC50", "setting": "[2]", "value": "0.1 to 1", "unit": "nM"}
    ]},
    {"smiles": "CC(=O)N1CCc2c(c(N3CCCc4cc(-c5cnn(C)c5)c(C(F)F)cc43)nn2[C@H]2CC[C@H](CN3CCN(c4ccc(C(=O)N[C@H]5CC[C@H](Oc6ccc(C#N)c(Cl)c6)CC5)nn4)CC3)CC2)C1", "note": "[Compound 209, 6-[4-[[4-[5-acetyl-3-[7-(difluoromethyl)-6-(1-methylpyrazol-4-yl)-3,4-dihydro-2H-quinolin-1-yl]-6,7-dihydro-4H-pyrazolo[4,3-c]pyridin-1-yl]cyclohexyl]methyl]piperazin-1-yl]-N-[4-(3-chloro-4-cyano-phenoxy)cyclohexyl]pyridazine-3-carboxamide]", "values": [
      {"measurement": "EC50", "setting": "[1]", "value": "< 1", "unit": "nM"},
      {"measurement": "IC50", "setting": "[2]", "value": "≤ 0.1", "unit": "nM"}
    ]},
    {"smiles": "CC(=O)N1CCc2c(c(N3CCCc4cc(-c5cnn(C)c5)c(C(F)F)cc43)nn2C2CCN([C@H]3CCN(c4ccc(C(=O)N[C@H]5CC[C@H](Oc6ccc(C#N)c(Cl)c6)CC5)nn4)C3)CC2)C1", "note": "[Compound 221, 6-[(3S)-3-[4-[5-acetyl-3-[7-(difluoromethyl)-6-(1-methylpyrazol-4-yl)-3,4-dihydro-2H-quinolin-1-yl]-6,7-dihydro-4H-pyrazolo[4,3-c]pyridin-1-yl]-1-piperidyl]pyrrolidin-1-yl]-N-[4-(3-chloro-4-cyano-phenoxy)cyclohexyl]pyridazine-3-carboxamide]", "values": [
      {"measurement": "EC50", "setting": "[1]", "value": "> 100", "unit": "nM"},
      {"measurement": "IC50", "setting": "[2]", "value": "1 to 100", "unit": "nM"}
    ]},
    {"smiles": "COC(=O)N1c2ccc3c(nc(Cc4ccccc4)n3[C@@H]3CCC[C@H](OCCN4CCN(c5ccc(C(=O)N[C@H]6CC[C@H](Oc7ccc(C#N)c(Cl)c7)CC6)nn5)CC4)C3)c2CC[C@@H]1C", "note": "[Compound 270, methyl (7S)-2-benzyl-3-[3-[2-[4-[6-[[4-(3-chloro-4-cyano-phenoxy)cyclohexyl]carbamoyl]pyridazin-3-yl]piperazin-1-yl]ethoxy]cyclohexyl]-7-methyl-8,9-dihydro-7H-imidazo[4,5-f]quinoline-6-carboxylate]", "values": [
      {"measurement": "EC50", "setting": "[1]", "value": "1 to 10", "unit": "nM"},
      {"measurement": "IC50", "setting": "[2]", "value": "1 to 100", "unit": "nM"}
    ]},
    {"smiles": "C[C@@H]1CC(=O)Nc2cccc(N3CCCc4cc(-c5cnn(CC6CCN(c7ccc(C(=O)N[C@H]8CC[C@H](Oc9ccc(C#N)c(Cl)c9)CC8)nn7)CC6)c5)c(C(F)F)cc43)c2N1", "note": "[Compound 34, N-[4-(3-chloro-4-cyano-phenoxy)cyclohexyl]-6-[4-[[4-[7-(difluoromethyl)-1-[(4R)-4-methyl-2-oxo1,3,4,5-tetrahydro-1,5-benzodiazepin-6-yl]-3,4-dihydro-2H-quinolin-6-yl]pyrazol-1-yl]methyl]-1-piperidyl]pyridazine-3-carboxamide]", "values": [
      {"measurement": "EC50", "setting": "[1]", "value": "1 to 10", "unit": "nM"},
      {"measurement": "IC50", "setting": "[2]", "value": "0.1 to 1", "unit": "nM"}
    ]},
    {"smiles": "CC(=O)N1CCc2c(c(N3CCCc4cc(-c5cnn(C)c5)c(C(F)F)cc43)nn2C2CCN(CC3CCN(c4ccc(C(=O)N[C@H]5CC[C@H](Oc6ccc(C#N)c(Cl)c6)CC5)nn4)CC3(C)C)CC2)C1", "note": "(stereo partly drawn) [Compound 230, 6-[4-[[4-[5-acetyl-3-[7-(difluoromethyl)-6-(1-methylpyrazol-4-yl)-3,4-dihydro-2H-quinolin-1-yl]-6,7-dihydro-4H-pyrazolo[4,3-c]pyridin-1-yl]-1-piperidyl]methyl]-3,3-dimethyl-1-piperidyl]-N-[4-(3-chloro-4-cyano-phenoxy)cyclohexyl]pyridazine-3-carboxamide]", "values": [
      {"measurement": "EC50", "setting": "[1]", "value": "< 1", "unit": "nM"},
      {"measurement": "IC50", "setting": "[2]", "value": "≤ 0.1", "unit": "nM"}
    ]},
    {"smiles": "CC(=O)N1CCc2c(c(-c3cccc4cc(C#N)ncc34)nn2C2CCN(CC3CCN(c4ccc(C(=O)N[C@H]5CC[C@H](Oc6ccc(C#N)c(Cl)c6)CC5)nn4)CC3)CC2)C1", "note": "[Compound 121, 6-[4-[[4-[5-acetyl-3-(3-cyano-8-isoquinolyl)-6,7-dihydro-4H-pyrazolo[4,3-c]pyridin-1-yl]-1-piperidyl]methyl]-1-piperidyl]-N-[4-(3-chloro-4-cyano-phenoxy)cyclohexyl]pyridazine-3-carboxamide]", "values": [
      {"measurement": "EC50", "setting": "[1]", "value": "< 1", "unit": "nM"},
      {"measurement": "IC50", "setting": "[2]", "value": "0.1 to 1", "unit": "nM"}
    ]},
    {"smiles": "CC(=O)N1CCc2c(c(N3CCCc4cc(-c5cnn(C)c5)c(C(F)F)cc43)nn2[C@H]2CC[C@H](C3CCC4(CC3)CN(c3ccc(C(=O)N[C@H]5CC[C@H](Oc6ccc(C#N)c(Cl)c6)CC5)nn3)C4)CC2)C1", "note": "[Compound 241, 6-[7-[4-[5-acetyl-3-[7-(difluoromethyl)-6-(1-methylpyrazol-4-yl)-3,4-dihydro-2H-quinolin-1-yl]-6,7-dihydro-4H-pyrazolo[4,3-c]pyridin-1-yl]cyclohexyl]-2-azaspiro[3.5]nonan-2-yl]-N-[4-(3-chloro-4-cyano-phenoxy)cyclohexyl]pyridazine-3-carboxamide]", "values": [
      {"measurement": "EC50", "setting": "[1]", "value": "1 to 10", "unit": "nM"},
      {"measurement": "IC50", "setting": "[2]", "value": "0.1 to 1", "unit": "nM"}
    ]}
  ]
}
